Experimental findings from patent US6001353A, “20α-alpha-hydroxy steroid dehydrogenase related material and methods” (priority 1997, dated 1999) are described below.

In data set [1] the target is T1, recombinant 20α-HSD (Rattus norvegicus, UniProt P51652).
T1 sequence (P51652 1-323): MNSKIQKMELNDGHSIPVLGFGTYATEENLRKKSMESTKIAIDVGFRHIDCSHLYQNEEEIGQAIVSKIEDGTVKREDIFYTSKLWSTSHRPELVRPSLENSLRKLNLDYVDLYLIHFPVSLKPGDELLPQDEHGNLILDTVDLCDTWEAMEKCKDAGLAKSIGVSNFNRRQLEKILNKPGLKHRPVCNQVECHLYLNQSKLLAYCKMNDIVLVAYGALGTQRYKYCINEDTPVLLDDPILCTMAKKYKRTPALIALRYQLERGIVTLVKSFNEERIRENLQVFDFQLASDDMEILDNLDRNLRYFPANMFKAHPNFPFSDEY
Nature of the data set: Substrate specificity, oxidation/reduction of steroid substrates, spectrophotometric. The format is biochemical. The conditions noted are these: for Recombinant 20α HSD activity, expressed in E. coli: enzyme expressed in E. coli; for Recombinant 20α HSD activity, expressed in E. coli / Recombinant 20α HSD activity, expressed in Sf-9 cells: spectrophotometric; for Recombinant 20α HSD activity, expressed in Sf-9 cells: enzyme expressed in Sf-9 cells. Set-up: a DNA fragment of 1.2 Kb containing the entire coding region of 20α-HSD; GST (E. coli preparation only; removed with thrombin) (N, cleaved yes); made in house; host or cells: E. coli DH5α (pGEX-4T-2) and Sf-9 insect cells (baculovirus, pBlueBacIII). Here is the method:
(§1) Enzyme activity of the recombinant 20α-HSD was determined by the rate of conversion of [1-2^3 H]-20α-hydroxy-pregn-4-ene-3-one (20α-hydroxprogesterone) to [1,2^3 H]progesterone in the presence of NADPH as described by Jones & Hsueh [J. Biol. Chem. 256:1248-1254 (1981)]. Enzyme activity was measured in this manner due to the fact that in an in vitro setting the reaction may be reversed, i.e. conversion of 20α-hydroxyprogesterone to progesterone. The assay mixtures (0.05 ml) contained 100 μM [1,2^3 H]hydroxyprogesterone [Dupont-New England Nuclear Research Products, Boston Mass.] […] Following incubation at 37° C. for 30 minutes, the [^3 H]progesterone content of each sample was determined after isolation by thin layer chromatography isolation. One unit of enzyme activity is defined as that amount of enzyme catalyzing the formation of 1 nmol of [^3 H]progesterone/minute from [1,2^3 H]hydroxyprogesterone. Specific activity is expressed as units/min/mg protein. The protein concentration was determined by the Bradford method using bovine serum albumin [Sigma Chemical Co, St. Louis, Mo.] as the standard [Bradford, Anal. Biochem. 72:248-254 (1976)]. […] Acta. 799:51-58 (1984); Noda et al., Biochim Biophys. Acta. 1079:112-118 (1991)].
To determine substrate specificity of recombinant 20α-HSD, the oxidation/reduction of several steroid substrates was also studied. […] Acta. 799:51-58 (1984); Noda et al., Biochim Biophys. Acta. 1079:112-118 (1991)]. […] However, compared to 20α-hydroxyprogesterone, 20α-HSD activity toward 17α-hydroxyprogesterone was lower, and its activity with progesterone was relatively higher.
The enzyme activity was measured spectrophotometrically. The data are expressed as the mean of duplicate determinations from three separate experiments. ND, not detected.

In data set [2] the target is T1, recombinant 20α-HSD. Nature of the data set: Steady state kinetic constants (Lineweaver-Burk). The format is biochemical. More on the design: a DNA fragment of 1.2 Kb containing the entire coding region of 20α-HSD; GST (E. coli preparation only; removed with thrombin) (N, cleaved yes); made in house; host or cells: E. coli DH5α (pGEX-4T-2) and Sf-9 insect cells (baculovirus, pBlueBacIII). To be noted: for concentration at which enzyme activity reached saturation / maximal activity: bacterially expressed enzyme, other reactant fixed (NADP 1 mM or 20α-hydroxyprogesterone 100 μM). The text has this: The data were transformed into a reciprocal Lineweaver-Burk plot to calculate the Km and maximum velocity (Vmax) values.

The target in data set [3] is T1, recombinant 20α-HSD. Nature of the data set: Aldo-keto (aldose/aldehyde) reductase activity, spectrophotometric NADPH oxidation at 340 nm. The conditions noted are these: for reduction of substrate by 20α-HSD (in words): purified recombinant 20α-HSD proteins; for activity relative to that observed with 20α-hydroxyprogesterone: maximal activity among aldose/aldehyde reductase substrates. Format: biochemical. More on the design: a DNA fragment of 1.2 Kb containing the entire coding region of 20α-HSD; GST (E. coli preparation only; removed with thrombin) (N, cleaved yes); made in house; host or cells: E. coli DH5α (pGEX-4T-2) and Sf-9 insect cells (baculovirus, pBlueBacIII). Here is the method:
Aldo-keto reductase activity of the recombinant 20α-HSD was assayed spectrophotometrically by measuring the rate of oxidation of NADPH at 340 nm at 37° C. using a saturating concentration of benzaldehyde, 2-nitrobenzaldehyde, D,L -glyceraldehyde methylgloxal, 9,10-phenanthrequinone or ^D -galactose [Azhar et al., Biochemistry 26:7047-7057 (1987)].

Substrate in data set [4]: NC(=O)c1ccc[n+]([C@@H]2O[C@H](COP(=O)([O-])OP(=O)(O)OC[C@H]3O[C@@H](n4cnc5c(N)ncnc54)[C@H](OP(=O)(O)O)[C@@H]3O)[C@@H](O)[C@H]2O)c1
The data set is described as follows: purified protein, by the assay type.

Substrate in data set [5]: C[C@H](O)[C@H]1CC[C@H]2[C@@H]3CCC4=CC(=O)CC[C@]4(C)[C@H]3CC[C@]12C
Nature of the data set: Steady state kinetic constants (Lineweaver-Burk). Format: biochemical, rat.

Data set [6] has as its target T1, recombinant 20α-HSD. Nature of the data set: 20α-HSD enzyme activity: conversion of [3H]20α-hydroxyprogesterone to [3H]progesterone. Format: biochemical. Set-up: a DNA fragment of 1.2 Kb containing the entire coding region of 20α-HSD; GST (E. coli preparation only; removed with thrombin) (N, cleaved yes); made in house; host or cells: E. coli DH5α (pGEX-4T-2) and Sf-9 insect cells (baculovirus, pBlueBacIII). To be noted: for Mean Specific Activity ± SE: purified recombinant enzyme, Table 3. The protocol:
as §1

Where [7] appears, read: other: enzyme expressed in E. coli, other reactant fixed (NADP 1 mM or 20α-hydroxyprogesterone 100 μM).
Setting [8] is: other: enzyme expressed in Sf-9 cells (baculovirus).

Take `C[C@]12C[C@H](O)[C@H]3[C@@H](CCC4=CC(=O)CC[C@@]43C)[C@@H]1CC[C@@H]2C(=O)CO` [Corticosterone]: the “action of recombinant 20α-HSD on substrate (in words)” value in data set [1] is “did not act on”. Take `NC(=O)c1ccc[n+]([C@@H]2O[C@H](COP(=O)([O-])OP(=O)(O)OC[C@H]3O[C@@H](n4cnc5c(N)ncnc54)[C@H](OP(=O)(O)O)[C@@H]3O)[C@@H](O)[C@H]2O)c1` [NADP]: the “concentration at which enzyme activity reached saturation / maximal activity” value in data set [2] is recorded as “about 100 μM”.

Regarding `C[C@]12CCC(=O)C[C@@H]1CC[C@@H]1[C@@H]2CC[C@]2(C)[C@@H](O)CC[C@@H]12` [5α-dihydrotestosterone], the “action of recombinant 20α-HSD on substrate (in words)” value in data set [1] is on record as “did not act on”.

In the case of `O=Cc1ccc([N+](=O)[O-])cc1` [4-Nitrobenzaldehyde], the “reduction of substrate by 20α-HSD (in words)” value (from here on “reduction of substrate”) in data set [3] was “very efficiently”.

Regarding `CC(=O)[C@@]1(O)CC[C@H]2[C@@H]3CCC4=CC(=O)CC[C@]4(C)[C@H]3CC[C@@]21C` [17α-Hydroxyprogesterone], in data set [1], the “Recombinant 20α HSD activity, expressed in E. coli” value is listed as 97 nmol/min/mg protein and the “Recombinant 20α HSD activity, expressed in Sf-9 cells” value was found to be 85 nmol/min/mg protein.

With `O=Cc1ccccc1` [Benzaldehyde], in data set [3], the “activity relative to that observed with 20α-hydroxyprogesterone” value is “approximately a third” and the “reduction of substrate” value is “very efficiently”. As for `CC(=O)[C@H]1CC[C@H]2[C@@H]3CCC4=CC(=O)CC[C@]4(C)[C@H]3CC[C@]12C` [Progesterone], in data set [1], the “Recombinant 20α HSD activity, expressed in E. coli” value came to 459 nmol/min/mg protein and the “Recombinant 20α HSD activity, expressed in Sf-9 cells” value was determined as 352 nmol/min/mg protein. For `O=CC(O)CO` (racemic) [D,L -Glyceraldehyde], in data set [3], the “activity relative to that observed with 20α-hydroxyprogesterone” value is recorded as “approximately a third” and the “reduction of substrate” value is listed as “very efficiently”. Consider `C[C@H](O)[C@H]1CC[C@H]2[C@@H]3CCC4=CC(=O)CC[C@]4(C)[C@H]3CC[C@]12C` [20α-Hydroxyprogesterone, 20α-hydroxy-pregn-4-ene-3-one], for which, in data set [2], the “concentration at which enzyme activity reached saturation / maximal activity” value is “around 10 μM”. Also, in data set [1], the “Recombinant 20α HSD activity, expressed in E. coli” value stood at 321 nmol/min/mg protein and the “Recombinant 20α HSD activity, expressed in Sf-9 cells” value came out at 250 nmol/min/mg protein.

B1: recombinant 20α-HSD (Rattus norvegicus) (protein)
chain: MNSKIQKMELNDGHSIPVLGFGTYATEENLRKKSMESTKIAIDVGFRHIDCSHLYQNEEEIGQAIVSKIEDGTVKREDIFYTSKLWSTSHRPELVRPSLENSLRKLNLDYVDLYLIHFPVSLKPGDELLPQDEHGNLILDTVDLCDTWEAMEKCKDAGLAKSIGVSNFNRRQLEKILNKPGLKHRPVCNQVECHLYLNQSKLLAYCKMNDIVLVAYGALGTQRYKYCINEDTPVLLDDPILCTMAKKYKRTPALIALRYQLERGIVTLVKSFNEERIRENLQVFDFQLASDDMEILDNLDRNLRYFPANMFKAHPNFPFSDEY
notes: a DNA fragment of 1.2 Kb containing the entire coding region of 20α-HSD; GST (E. coli preparation only; removed with thrombin) (N, cleaved yes); made in house; host or cells: E. coli DH5α (pGEX-4T-2) and Sf-9 insect cells (baculovirus, pBlueBacIII)
A word on the Km: it is the substrate concentration at which the rate is half of its maximum. Turning to B1, the Km in data set [4] (setting [7]) worked out at 9.5 µM; in data set [4] (setting [8]) it was 9.6 µM; in data set [5] (setting [7]), 5.9 µM; in data set [5] (setting [8]), 5.8 µM.

B2: recombinant 20α-HSD expressed in E. coli: rat 20α-HSD expressed as GST fusion in E. coli DH5α, thrombin-cleaved and purified (protein, UniProt P51652 1-323, looked up)
Aldo-keto reductase family 1 …: MNSKIQKMELNDGHSIPVLGFGTYATEENLRKKSMESTKIAIDVGFRHIDCSHLYQNEEEIGQAIVSKIEDGTVKREDIFYTSKLWSTSHRPELVRPSLENSLRKLNLDYVDLYLIHFPVSLKPGDELLPQDEHGNLILDTVDLCDTWEAMEKCKDAGLAKSIGVSNFNRRQLEKILNKPGLKHRPVCNQVECHLYLNQSKLLAYCKMNDIVLVAYGALGTQRYKYCINEDTPVLLDDPILCTMAKKYKRTPALIALRYQLERGIVTLVKSFNEERIRENLQVFDFQLASDDMEILDNLDRNLRYFPANMFKAHPNFPFSDEY
modifications: expressed in E. coli; GST tag thrombin-cleaved
notes: rat 20α-HSD expressed as GST fusion in E. coli DH5α, thrombin-cleaved and purified
Turning to B2, in data set [2] (similar assay conditions), the “Vmax values higher than those of 20α-HSD expressed in insect cells” value was 20-30%. Also, in data set [6] (purified enzyme from bacterial expression system), the “average specific activity of the purified preparations” value was determined as 332 ±47 nmol/min/mg protein. Moreover, the “Mean Specific Activity ± SE” value in data set [6] was determined as 332 ± 47 nmol/min - mg protein.

B3: recombinant 20α-HSD expressed in Sf-9 cells: rat 20α-HSD expressed in baculovirus-infected Sf-9 insect cells and purified (protein, UniProt P51652 1-323, looked up)
Aldo-keto reductase family 1 …: MNSKIQKMELNDGHSIPVLGFGTYATEENLRKKSMESTKIAIDVGFRHIDCSHLYQNEEEIGQAIVSKIEDGTVKREDIFYTSKLWSTSHRPELVRPSLENSLRKLNLDYVDLYLIHFPVSLKPGDELLPQDEHGNLILDTVDLCDTWEAMEKCKDAGLAKSIGVSNFNRRQLEKILNKPGLKHRPVCNQVECHLYLNQSKLLAYCKMNDIVLVAYGALGTQRYKYCINEDTPVLLDDPILCTMAKKYKRTPALIALRYQLERGIVTLVKSFNEERIRENLQVFDFQLASDDMEILDNLDRNLRYFPANMFKAHPNFPFSDEY
modifications: expressed in baculovirus Sf-9 cells
notes: rat 20α-HSD expressed in baculovirus-infected Sf-9 insect cells and purified
For B3, the “Mean Specific Activity ± SE” value in data set [6] is 259 ± 36 nmol/min - mg protein.
